Experimental data: patent US20130324543A1, “REVERSAL OF HIGH BREAST CANCER RISK IN MAMMALS EXPOSED TO ESTROGENIC CHEMICALS IN UTERO BY ADULT EXPOSURE TO HDAC AND DNMT INHIBITORS” (Georgetown University, priority 2012, published 2013)

Key:
[1] = Litter size and pup weight in F1-F3 rat generations; type: in vivo, Sprague-Dawley rats; conditions: diet of the F0 dams; any of the three generations
Protocol: Pregnant dams were weighed once a week to monitor changes in weight gain. The birth weight of pups and number of pups per litter were recorded. To avoid litter-effect, pups were crossfostered 1-2 days after dams gave birth. Pups from 2-4 dams were pooled and housed in a litter of 8-10 pups per nursing dam (which had the same dietary/hormonal exposure during pregnancy as the pups' mothers). All pups were weaned on postnatal day 21.

[2] = system: mammary tumors; assay: DMBA-induced mammary tumorigenesis in F1-F3 offspring of rat dams fed HF or EE2 diet; type: in vivo, Sprague-Dawley rats
Protocol: Pregnant Sprague-Dawley rats (F0) were fed AI[…] control diet or an isocaloric AI[…] based HF diet, containing 43% energy from corn oil, throughout gestation. Another group of pregnant rats was fed AI[…] diet supplemented with 0.1 ppm ethinyl estradiol (EE2) from day 14 to day 20 of pregnancy. F1 females were mated with F1 males from the same group to produce the F2 generation. The F3 generation was produced in the same manner (FIG. 23). No sibling mating was carried out. […] AI[…] control diet (control, 17% energy from corn oil), isocaloric high fat diet (HF, 43% energy from corn oil) or ethinyl estradiol-supplemented AI[…] diet (EE2, 0.1 ppm). The HF diet was fed for dams through the duration of pregnancy (P) (21 days), while dams were fed EE2 supplemented diet between days P14-20. Once pups (F1) were born, all dams received the control diet. F1 and F2 females (n=8-10) were mated on PND 60 with males from the same group to produce the F2 and F3 generations. All F1 and F2 pregnant dams were fed control diet for the extent of pregnancy. Outcross experiments were also performed: F1 females or males exposed to EE2 or HF diet in utero were crossed with control males or females. […] Tumorigenesis (incidence and multiplicity) was monitored for 20 weeks. […] Louis, Mo.) in 1 ml of peanut oil. […] Tumor growth was measured using a caliper and the length, width, and height of each tumor were recorded. […] Differences in tumor latency and multiplicity were tested by t-test (or Mann-Whitney Rank Sum test) or one-way ANOVA (where appropriate, between groups comparisons after ANOVA were done using Dunn's multi-comparison procedure). Kaplan-Meier survival curves were used to compare differences in tumor incidence, followed by the log-rank test Tumor histopathology was analyzed.

[3] = system: mammary gland; assay: Number of terminal end buds (TEBs) in mammary whole mounts of F1-F3 rat offspring; type: in vivo, Sprague-Dawley rats; conditions: mean±s.e.m.
Protocol: Whole mounts (n=5-6 per group and age) were examined under the microscope and evaluated as described before (28) to assess the number of terminal end buds (TEBs). Results were analyzed by t-test (or Mann-Whitney Rank Sum test) or one-ANOVA (when comparing outcross groups in F2 generation). Where appropriate, between groups comparisons after ANOVA were done by Holm-Sidak multi-comparison procedure.

[4] = Immediate adverse effects of dietary exposure in adult non-pregnant littermates of dams; type: in vivo, mice; conditions: last day of dietary exposure, data not shown
Protocol: For ethical reasons non-pregnant littermate females were used for blood collection instead of the dams, and the samples were taken on the last day of their dietary exposure. Blood was collected by heart puncture of anesthetized mice prior to euthanasia, and serum was separated by centrifugation (1000×g for 10 min) and stored frozen until hormone measurements.
In addition, possible immediate adverse effects of EE2, BPA and GEN exposure for adult mice were evaluated using the non-pregnant littermates of dams. Their body weights were recorded and the mammary gland morphology examined on the last day of their dietary exposure.

[5] = F1 generation (daughters) vs controls
[6] = F2 generation (granddaughters) vs controls
[7] = F3 generation (great-granddaughters) vs controls
[8] = Con x EE2 outcross (F2 generation)
[9] = EE2 x Con outcross (F2 generation)
[10] = maternal EE2 diet 0.1 ppm, F1 generation
[11] = maternal EE2 diet, F2 generation
[12] = maternal EE2 diet, F3 generation

C#C[C@]1(O)CC[C@H]2[C@@H]3CCc4cc(O)ccc4[C@H]3CC[C@@]21C [EE2, ethinyl estradiol]
litter size or pups weight [1]: did not affect
Mammary tumor incidence [2, 5]: higher
mammary tumor multiplicity [2, 5]: higher
Mammary tumor incidence [2, 6]: neither tumor incidence (p=0.68) nor multiplicity (p=0.49) was statistically different
mammary tumor multiplicity [2, 6]: neither tumor incidence (p=0.68) nor multiplicity (p=0.49) was statistically different
tumor multiplicity ([2]; F2 outcross EE2♀×C♂ vs controls): significantly higher
Mammary tumor incidence ([2]; F2 outcross, control ♀ x exposed ♂): 33%
Mammary tumor incidence ([2]; F2 outcross, exposed ♀ x control ♂): 62%
Mammary tumor incidence [2, 7]: also higher, but not statistically significant
mammary tumor multiplicity [2, 7]: significantly higher
Number of TEBs PND 21 [3, 8]: 19.4 ± 1.5
Number of TEBs PND 50 [3, 8]: 11.0 ± 1.2
Number of TEBs PND 21 [3, 9]: 32.7 ± 3.6
Number of TEBs PND 50 [3, 9]: 22.8 ± 1.6
Number of TEBs PND 21 [3, 10]: 25.3 ± 1.3
Number of TEBs PND 50 [3, 10]: 32.5 ± 2.3
Number of TEBs PND 21 [3, 11]: 30.8 ± 1.9
Number of TEBs PND 50 [3, 11]: 22.2 ± 3.8
Number of TEBs PND 21 [3, 12]: 33.0 ± 2.1
Number of TEBs PND 50 [3, 12]: 28.7 ± 3.4
body weight or mammary epithelial development [4]: No significant differences
